US20250127905A1, “GLUTARIMIDE COMPOUND AND USE THEREOF” (MEDSHINE DISCOVERY INC., priority 2021, published 2025)
Where a name gives a salt, the structure may show the parent alone.

Biological target: T1, IRAK4 (Homo sapiens, UniProt Q9NWZ3)
T1 construct: expressed in transfected cells; host or cells: K562 IRAK4-HiBiT cells
T1 sequence (Q9NWZ3 1-460): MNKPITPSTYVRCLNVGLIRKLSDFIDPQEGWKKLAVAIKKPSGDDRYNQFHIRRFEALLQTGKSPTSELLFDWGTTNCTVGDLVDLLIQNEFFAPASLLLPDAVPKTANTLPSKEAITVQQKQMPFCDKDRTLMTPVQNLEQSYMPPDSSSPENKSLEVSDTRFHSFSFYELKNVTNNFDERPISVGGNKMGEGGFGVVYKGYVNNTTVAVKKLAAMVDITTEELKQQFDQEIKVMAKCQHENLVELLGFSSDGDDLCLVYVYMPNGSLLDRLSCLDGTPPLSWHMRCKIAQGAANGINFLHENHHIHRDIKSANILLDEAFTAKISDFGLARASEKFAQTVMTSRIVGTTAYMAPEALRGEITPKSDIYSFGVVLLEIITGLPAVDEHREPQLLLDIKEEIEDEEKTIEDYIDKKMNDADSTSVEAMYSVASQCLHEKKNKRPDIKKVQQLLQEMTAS
Assay: Target protein degradation effect in K562 IRAK4-HiBiT cells (Nano-Glo HiBiT)
Type: cell-based
Details: incubated 16 to 18 hours
Description: Experimental purpose: In this experiment, the degradation effect of the test compound on the target protein IRAK4 in K562 IRAK4-HiBiT cells was detected.
• Cells: K562 IRAK4-HiBiT cells • Culture media: RPMI 1640+10% FBS+2 mM GlutaMax+1 mM sodium pyruvate+penicillin/streptomycin • Positive control: 1000 nM; negative control: 0.1% DMSO
• (1). The compound to be tested in powder form was dissolved in DMSO to 10 mM as a storage concentration, and 9 μL of the 10 mM compound to be tested was manually pipetted to column 1 and column 13 of an LDV plate using a pipette; • (2). 6 μL of DMSO was added to columns 2 to 12 and 14 to 24 using Multidrop Combi; [0688](3). the compound to be tested was 3-fold diluted (3 μL+6 μL) from columns 1 to 11 and 13 to 23 using Bravo; • (4). 25 nL of compound solution (columns 1 to 24 of the LDV plate) was transferred to an assay plate using Echo according to the plate layout; • (5). 25 nL of 1 mM positive control solution was transferred to the assay plate as a 100% degradation control (i.e., LC, HPE) and 25 nL of DMSO was transferred to the assay plate as a 0% control (i.e., HC, ZPE) using Echo.
• (1). The cell culture medium was discarded, and the cells were washed once with DPBS, digested with trypsin, and counted to prepare a cell suspension of […]; • (2). 25 µL/well of cell suspension was added to the assay plate containing the compound to be tested using Multidrop Combi at medium speed; • (3). the assay plate containing cells was returned to an incubator with 5% CO2 at 37° C. and incubated for 16 to 18 hours.
• (1). 25 µL/well of assay reagent (NanoGlo lysis buffer+substrate+LgBit protein) was added to the assay plate using Multidrop Combi at high speed, and the plate was shaken for 10 minutes; • (2). the plate was centrifuged at 2000 rpm for 1 minute to remove air bubbles; • (3). the plate was read on Envision using US Luminescence detection method.
The inhibition rate (IR) of the test compound was calculated using the following formula: IR (%)=(RLU vehicle control−RLU compound)/(RLU vehicle control−RLU positive control)×100%, and the vehicle control is the blank control. The inhibition rates of compounds at different concentrations were calculated in Excel, and then XLFit software was used to plot inhibition curves and calculate relevant parameters, including minimum inhibition rate, maximum inhibition rate, and DC50.

- DC50: 4.12 nM
- Maximum inhibition rate: 106.70%
Structure (SMILES): O=C1CCC(c2noc3c(NC(=O)CN4CCN(C[C@H]5CC[C@H](n6cc(NC(=O)c7cnn8ccc(N9C[C@H]%10C[C@@H]9CO%10)nc78)c(C(F)F)n6)CC5)CC4)cccc23)C(=O)N1 (some centres unmarked) [Hydrochloride of WX015]
